Laboratory results published in BindingDB's records for doi:10.1021/acs.jnatprod.5b00062 (Albert-Ludwigs-University of Freiburg, 2015).

How the values were obtained:
[1] = target: Sarcoplasmic/endoplasmic reticulum calcium ATPase 1 (Rattus norvegicus, UniProt Q64578); experiment: Inhibition of Wistar rat EDL muscle SERCA1a after 1 hr
[2] = target: Sodium/potassium-transporting ATPase subunit alpha-1 (Rattus norvegicus, UniProt P06685); experiment: Inhibition of Wistar rat kidney Na+,K+-ATPase alpha1 after 2 hrs

Sequence of Sarcoplasmic/endoplasmic reticulum calcium ATPase 1 (Q64578 whole entry): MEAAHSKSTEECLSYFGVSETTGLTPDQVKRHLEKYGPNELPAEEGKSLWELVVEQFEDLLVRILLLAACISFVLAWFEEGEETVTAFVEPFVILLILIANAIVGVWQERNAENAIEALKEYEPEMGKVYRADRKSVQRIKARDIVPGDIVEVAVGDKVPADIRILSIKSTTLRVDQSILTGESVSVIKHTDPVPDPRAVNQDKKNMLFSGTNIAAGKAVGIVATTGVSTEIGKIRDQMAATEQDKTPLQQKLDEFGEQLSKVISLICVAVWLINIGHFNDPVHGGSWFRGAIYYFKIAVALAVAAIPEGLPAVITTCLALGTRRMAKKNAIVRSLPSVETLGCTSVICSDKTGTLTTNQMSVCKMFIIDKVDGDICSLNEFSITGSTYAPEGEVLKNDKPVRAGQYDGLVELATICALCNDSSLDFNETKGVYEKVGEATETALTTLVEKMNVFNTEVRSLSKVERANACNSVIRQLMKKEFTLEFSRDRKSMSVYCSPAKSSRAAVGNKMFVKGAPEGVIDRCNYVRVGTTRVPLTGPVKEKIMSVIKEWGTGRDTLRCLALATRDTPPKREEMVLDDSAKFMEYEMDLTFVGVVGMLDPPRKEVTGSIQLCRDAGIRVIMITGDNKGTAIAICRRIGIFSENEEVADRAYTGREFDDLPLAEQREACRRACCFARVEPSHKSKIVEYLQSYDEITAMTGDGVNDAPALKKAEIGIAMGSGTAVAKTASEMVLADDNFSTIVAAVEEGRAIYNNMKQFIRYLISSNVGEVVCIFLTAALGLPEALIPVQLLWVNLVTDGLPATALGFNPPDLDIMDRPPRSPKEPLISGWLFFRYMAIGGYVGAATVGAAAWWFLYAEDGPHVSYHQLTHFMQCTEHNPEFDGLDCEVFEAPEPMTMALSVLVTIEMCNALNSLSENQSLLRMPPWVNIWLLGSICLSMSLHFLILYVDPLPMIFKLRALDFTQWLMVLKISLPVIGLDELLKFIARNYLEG

SMILES: CC[C@H](C)[C@H]1O[C@]2(CC[C@@H]1C)C[C@@H]1C[C@@H](C/C=C(\C)[C@@H](O[C@H]3C[C@H](OC)[C@@H](O[C@H]4C[C@H](OC)[C@@H](O)[C@H](C)O4)[C@H](C)O3)[C@@H](C)/C=C/C=C3\CO[C@@H]4[C@H](O)C(C)=C[C@@H](C(=O)O1)[C@]34O)O2 [ABAMECTIN]
- IC50 [1]: 16.9 µM
- IC50 [2]: 8.23 µM
